Here are results for 13 molecules from patent publication US10392383B2, “3-(1H-benzo[d]imidazol-2-yl)-1H-pyrazolo[4,3-b]pyridines and therapeutic uses thereof” (Samumed, LLC, priority 2015, dated 2019).

For assay [1], the system named is primary human mesenchymal stem cells (hMSCs). Put plainly: Induction of chondrogenesis in human mesenchymal stem cells (nodule staining with Rhodamine B / Nile Red). The assay is classed as cell-based. Particulars: for Emax: TGF-β3 (10 ng/mL) as positive control, read-out: Max. Activity as % TGF-β3 activity; for EC50: concentration required to induce 50% levels of chondrogenesis vs TGF-β3, read-out: Conc (nM) of 50% TGF-β3 activity. The essentials:
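Primary hMSCs (passage 3–6) in incomplete chondrogenic induction medium were exposed 6 days at 37° C to compound (1:3 dilutions, 2700–10 nM in 96-well or 5000–2.2 nM in 384-well; 0.03% DMSO). Nodules stained with Rhodamine B/Nile Red were imaged; area normalized to DMSO wells for EC50, maximal activity and dose at maximum.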

For the next assay, the system named is IL-6 (THP-1 cells). Nature of the assay: IL-6 inhibition in LPS-stimulated THP-1 monocytes (HTRF). In kind it is cell-based. Conditions: Homo sapiens, IL-6 HTRF; for EC50: 500 ng/mL LPS, Table 6; for inhibition at 10 µM: LPS, Table 6, read-out: percent inhibition at 10 μM (given in parentheses for EC50 >10 μM). The procedure, abridged: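 THP-1 cells in 1% FBS pre-incubated 2 h with compound (10-point 1:3 series from 10 μM, 0.1% DMSO), then stimulated with 500 ng/mL LPS for 22 h at 37 °C. IL-6 measured by HTRF 665/620 ratio, normalized to DMSO; EC50 by four-parameter fit, or % inhibition at 10 μM when EC50 >10 μM.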

In the case of `CCNCc1cncc(-c2ccc3[nH]nc(-c4nc5c(-c6cc(F)cc(NCCN(C)C)c6)cccc5[nH]4)c3n2)c1` [Compound 454, N^1-(3-(2-(5-(5-((Ethylamino)methyl)pyridin-3-yl)-1H-pyrazolo[4,3-b]pyridin-3-yl)-1H-benzo[d]imidazol-4-yl)-5-fluorophenyl)-N^2,N^2-dimethylethane-1,2-diamine], in assay [1], the Emax turned out to be 104% and the EC50 is 62 nM. This molecule also showed an EC50 in the assay with IL-6 (THP-1 cells) of 628 nM.
As for `CC(C)Nc1cncc(-c2ccc3[nH]nc(-c4nc5c(-c6cc(F)cc(NCCN(C)C)c6)cccc5[nH]4)c3n2)c1` [Compound 460, N^1-(3-Fluoro-5-(2-(5-(5-(isopropylamino)pyridin-3-yl)-1H-pyrazolo[4,3-b]pyridin-3-yl)-1H-benzo[d]imidazol-4-yl)phenyl)-N^2,N^2-dimethylethane-1,2-diamine], in assay [1], the Emax was 62% and the EC50 came to 10 nM. In addition, the EC50 in the assay with IL-6 (THP-1 cells) was 975 nM.
Regarding `CCCCC(=O)Nc1cncc(-c2ccc3[nH]nc(-c4nc5c(-c6cc(F)cc(NCCN(C)C)c6)cccc5[nH]4)c3n2)c1` [Compound 467, N-(5-(3-(4-(3-((2-(Dimethylamino)ethyl)amino)-5-fluorophenyl)-1H-benzo [d]imidazol-2-yl)-1H-pyrazolo[4,3-b]pyridin-5-yl)pyridin-3-yl)pentanamide], the Emax in assay [1] is 36%. This molecule returned an EC50 in the assay with IL-6 (THP-1 cells) of 1320 nM.
On the same counts, the results for `Cc1ccncc1-c1ccc2[nH]nc(-c3nc4c(-c5cc(F)cc(CNS(C)(=O)=O)c5)cccc4[nH]3)c2n1` [Compound 481, N-(3-Fluoro-5-(2-(5-(4-methylpyridin-3-yl)-1H-pyrazolo[4,3-b]pyridin-3-yl)-1H-benzo[d]imidazol-4-yl)benzyl)methanesulfonamide] are 36% and 2120 nM.
On to `CCCC(=O)Nc1cncc(-c2ccc3[nH]nc(-c4nc5c(-c6cc(F)cc(CNS(C)(=O)=O)c6)cccc5[nH]4)c3n2)c1` [Compound 493, N-(5-(3-(4-(3-Fluoro-5-(methylsulfonamidomethyl)phenyl)-1H-benzo[d]imidazol-2-yl)-1H-pyrazolo[4,3-b]pyridin-5-yl)pyridin-3-yl)butyramide], for which, in assay [1], the Emax worked out at 100% and the EC50 came out at 900 nM. In the assay with IL-6 (THP-1 cells), the EC50 was over 10000 nM and the inhibition – broadly, the percentage by which the read-out fell short of the control – at 10 µM was determined as 35.3%.
As to `Fc1cccc(-c2cccc3[nH]c(-c4n[nH]c5ccc(C6CCNCC6)nc45)nc23)c1` [Compound 505, 3-(4-(3-Fluorophenyl)-1H-benzo[d]imidazol-2-yl)-5-(piperidin-4-yl)-1H-pyrazolo[4,3-b]pyridine], in assay [1], the Emax was found to be 46%. Moreover, in the assay on IL-6 (THP-1 cells), the EC50 is 4920 nM.
Consider `Cn1cc(-c2ccc3[nH]nc(-c4nc5c(-c6cccc(F)c6)cccc5[nH]4)c3n2)cn1` [Compound 508, 3-(4-(3-Fluorophenyl)-1H-benzo[d]imidazol-2-yl)-5-(1-methyl-1H-pyrazol-4-yl)-1H-pyrazolo[4,3-b]pyridine], for which the Emax in assay [1] turned out to be 48%. Also, in the assay on IL-6 (THP-1 cells), the EC50 was over 10000 nM and the inhibition at 10 µM was 0%.
Regarding `Cc1ncc(-c2ccc3[nH]nc(-c4nc5c(-c6cccc(F)c6)cccc5[nH]4)c3n2)n1C` [Compound 509, 5-(1,2-Dimethyl-1H-imidazol-5-yl)-3-(4-(3-fluorophenyl)-1H-benzo[d]imidazol-2-yl)-1H-pyrazolo[4,3-b]pyridine], the Emax in assay [1] was determined as 112%. For the same molecule, the EC50 turned out to be 10 nM in assay [1] and 788 nM in the assay with IL-6 (THP-1 cells).
On the same counts, the results for `NC1CN(c2cncc(-c3ccc4[nH]nc(-c5nc6c(-c7cccc(F)c7)cccc6[nH]5)c4n3)n2)C1` [Compound 510, 1-(6-(3-(4-(3-Fluorophenyl)-1H-benzo[d]imidazol-2-yl)-1H-pyrazolo[4,3-b]pyridin-5-yl)pyrazin-2-yl)azetidin-3-amine] are 53%, 7 nM and 7840 nM.
The like results for `Fc1cccc(-c2cccc3[nH]c(-c4n[nH]c5ccc(-c6cncc(OC7CCNCC7)c6)nc45)nc23)c1` [Compound 512, 3-(4-(3-Fluorophenyl)-1H-benzo[d]imidazol-2-yl)-5-(5-(piperidin-4-yloxy)pyridin-3-yl)-1H-pyrazolo[4,3-b]pyridine] were, in that order, 75%, 7 nM and 1520 nM.
The like results for `CN(C)CCOc1cncc(-c2ccc3[nH]nc(-c4nc5c(-c6cccc(F)c6)cccc5[nH]4)c3n2)c1` [Compound 515, 2-((5-(3-(4-(3-Fluorophenyl)-1H-benzo[d]imidazol-2-yl)-1H-pyrazolo[4,3-b]pyridin-5-yl)pyridin-3-yl)oxy)-N,N-dimethylethan-1-amine] were, in that order, 55%, 2 nM and 7380 nM.
Take `COc1cncc(-c2ccc3[nH]nc(-c4nc5c(-c6cccc(F)c6)cccc5[nH]4)c3n2)c1` [Compound 516, 3-(4-(3-Fluorophenyl)-1H-benzo[d]imidazol-2-yl)-5-(5-methoxypyridin-3-yl)-1H-pyrazolo[4,3-b]pyridine]: in assay [1], the Emax worked out at 54% and the EC50 was determined as 2 nM. In the assay with IL-6 (THP-1 cells), the EC50 was over 10000 nM and the inhibition at 10 µM was determined as 49.5%.
`Oc1cncc(-c2ccc3[nH]nc(-c4nc5c(-c6cccc(F)c6)cccc5[nH]4)c3n2)c1` [Compound 517, 5-(3-(4-(3-Fluorophenyl)-1H-benzo[d]imidazol-2-yl)-1H-pyrazolo[4,3-b]pyridin-5-yl)pyridin-3-ol]: the Emax in assay [1] is 45%. In the assay with IL-6 (THP-1 cells), this molecule had an EC50 of 9700 nM.
